Values of other authors, collected in US20240339215A1, “SYSTEM AND METHOD FOR DRUG SELECTION” (Board of Regents, The University of Texas System, priority 2023, published 2024).
Like-named read-outs stand apart in the source and are kept apart here.

Test system: breast cancer cell lines

Measured: synergistic effect of combination

Cc1cc([C@@H](C)Nc2ccccc2C(=O)O)c2nc(N3CCOCC3)cc(=O)n2c1 [AZD6482]
synergistic effects: combined with Linsitinib | combined with MK-1775 (Adavosertib) | combined with Sapitinib | combined with Vorinostat
